The source of these data is patent US10392383B2, “3-(1H-benzo[d]imidazol-2-yl)-1H-pyrazolo[4,3-b]pyridines and therapeutic uses thereof” (Samumed, LLC, priority 2015, dated 2019).

pEC50: −log10 of the molar value.

Common to all, as to assay type: cell-based
Assay [1] concerns Wnt activity (Sp5-Luc reporter, Wnt-responsive promoter) in SW480 colon carcinoma cells. The assay is described as follows: Wnt activity screening assay: Sp5-Luc reporter gene assay in SW480 cells. The settings on record: Homo sapiens; for pEC50: overnight incubation, 10-point curve starting from 10 μM; for inhibition at 10 µM: read-out: percent inhibition at 10 μM (given for EC50 of >10 μM). An outline of the steps: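 Wnt-driven firefly luciferase in SW480 colon carcinoma cells reports pathway activity after overnight compound exposure (10 μM top concentration, 3-fold steps). Signal is normalized to DMSO controls.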
For orientation: A reporter such as luciferase makes a cellular process visible.

For the next assay, the system named is SW480 colon cancer cells. The assay can be described thus: Cell viability assay (CellTiter-Blue) in SW480 cells. The settings on record: Homo sapiens, 96 h, four days; for inhibition at 10 µM: read-out: percent inhibition at 10 μM (given for EC50 of >10 μM); for pEC50: CellTiter-Blue, 10 μM to 0.0045 μM. An outline of the steps: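 SW480 colon cancer cells (~2×10^3/well) exposed to 8-point 1:3 dilutions from 10 μM to 0.0045 μM for four days at 37 °C/5% CO2. Viability read by resazurin (CellTiter-Blue) fluorescence after ~3 h, Ex 560/Em 590 nm. EC50 from non-linear regression; percent inhibition at 10 μM given when EC50 >10 μM.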
A general note: Alamar Blue is a resazurin reagent that responds to reducing activity.

The test system of assay [2] is primary human fibroblasts derived from IPF patients (LL29 cells) treated with TGF-β1. The assay can be described thus: Inhibition of the fibrotic process: αSMA staining in TGF-β1-treated LL29 fibroblasts. The settings on record: Fibroblast; for pEC50: 96 h, LL29 fibroblasts treated with TGF-β1 (20 ng/mL), 4 days, Table 4; for inhibition at 10 µM: LL29 fibroblasts treated with TGF-β1, Table 4, read-out: percent inhibition at 10 μM (given in parentheses for EC50 >10 μM). An outline of the steps:
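IPF-derived LL29 fibroblasts in F12 with 1% FBS dosed with compound (11-point, 10 μM to 1.87 nM, 0.1% DMSO), then 20 ng/mL TGF-β1 after 1 h, and cultured 4 days at 37 °C. αSMA-positive cell fraction imaged after excluding SYTOX-positive cells, normalized to TGF-β1/DMSO wells; EC50 by non-linear regression, % inhibition at 10 μM if EC50 >10 μM.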

For orientation: pEC50 means the EC50 on a negative log10 scale, so that one unit is a factor of ten. As a reminder, the inhibition is the relative decrease from the control value, in per cent. For the compound `O=C(Nc1cncc(-c2ccc3[nH]nc(-c4nc5c(-c6ccc(Cl)s6)cccc5[nH]4)c3n2)c1)C1CCC1` [Compound 1056, N-(5-(3-(4-(5-Chlorothiophen-2-yl)-1H-benzo[d]imidazol-2-yl)-1H-pyrazolo [4,3-b]pyridin-5-yl)pyridin-3-yl)cyclobutanecarboxamide], the pEC50 was 5.48 in assay [1], less than 5.00 in the assay on SW480 colon cancer cells and 5.63 in assay [2]. Besides, the inhibition at 10 µM in the assay with SW480 colon cancer cells amounted to 0%.
With `CN1CCN(c2cccc3[nH]c(-c4n[nH]c5ccc(-c6cncnc6)nc45)nc23)CC1` [Compound 251, 3-(4-(4-Methylpiperazin-1-yl)-1H-benzo[d]imidazol-2-yl)-5-(pyrimidin-5-yl)-1H-pyrazolo[4,3-b]pyridine], the inhibition at 10 µM in assay [1] worked out at 4.7%; in the assay with SW480 colon cancer cells, 0%. The pEC50 was less than 5.00 in assay [1], less than 5.00 in the assay with SW480 colon cancer cells and 5.62 in assay [2].
Take `c1cc(-c2ccncc2)c2nc(-c3n[nH]c4ccc(-c5ccncc5)nc34)[nH]c2c1` [Compound 130, 5-(Pyridin-4-yl)-3-(4-(pyridin-4-yl)-1H-benzo[d]imidazol-2-yl)-1H-pyrazolo [4,3-b]pyridine]: the inhibition at 10 µM in assay [1] worked out at 39.7%; in the assay on SW480 colon cancer cells, 23.4%. For the same compound, the values for the pEC50 (in assay [1]; with SW480 colon cancer cells; in assay [2]) were less than 5.00, less than 5.00 and 5.97, respectively.
Consider `Oc1cncc(-c2ccc3[nH]nc(-c4nc5ccccc5[nH]4)c3n2)c1` [Compound 661, 5-(3-(1H-Benzo[d]imidazol-2-yl)-1H-pyrazolo[4,3-b]pyridin-5-yl)pyridin-3-ol], for which the inhibition at 10 µM was 32.4% in assay [1], 29.2% in the assay on SW480 colon cancer cells and 30.3% in assay [2]. Further, the pEC50 (in assay [1]; in the assay on SW480 colon cancer cells; in assay [2]) was less than 5.00 each time.
For `Cc1cn(-c2cccc3[nH]c(-c4n[nH]c5ccc(-c6cncc(N7CC(N)C7)n6)nc45)nc23)cn1` [Compound 622, 1-(6-(3-(4-(4-Methyl-1H-imidazol-1-yl)-1H-benzo[d]imidazol-2-yl)-1H-pyrazolo[4,3-b]pyridin-5-yl)pyrazin-2-yl)azetidin-3-amine], the inhibition at 10 µM turned out to be 12.6% in assay [1], 17.8% in the assay with SW480 colon cancer cells and 0% in assay [2]. The pEC50 (in assay [1]; in the assay on SW480 colon cancer cells; in assay [2]) was less than 5.00 in each case.
Consider `CC(C)(C)C(=O)Nc1cncc(-c2ccc3[nH]nc(-c4nc5c(-c6ccc(Cl)s6)cccc5[nH]4)c3n2)c1` [Compound 1043, N-(5-(3-(4-(5-chlorothiophen-2-yl)-1H-benzo[d]imidazol-2-yl)-1H-pyrazolo[4,3-b]pyridin-5-yl)pyridin-3-yl)pivalamide], for which the pEC50 in assay [1] is 5.88; in the assay on SW480 colon cancer cells, 5.28; in assay [2], 5.63.
In the same order, the values of `Nc1cncc(-c2ccc3[nH]nc(-c4nc5c(-c6ccccc6F)cccc5[nH]4)c3n2)c1` [Compound 59, 5-(3-(4-(2-Fluorophenyl)-1H-benzo[d]imidazol-2-yl)-1H-pyrazolo[4,3-b]pyridin-5-yl)pyridin-3-amine] are 5.87, 5.79 and 5.86.
Take `COc1cccc(-c2cccc3[nH]c(-c4n[nH]c5ccc(-c6cncc(NC(=O)C7CCCCC7)c6)nc45)nc23)c1` [Compound 1012, N-(5-(3-(4-(3-Methoxyphenyl)-1H-benzo[d]imidazol-2-yl)-1H-pyrazolo[4,3-b]pyridin-5-yl)pyridin-3-yl)cyclohexanecarboxamide]: the inhibition at 10 µM was 3.6% in assay [1], 4.6% with SW480 colon cancer cells and 36.9% in assay [2]. Also, the pEC50 (in assay [1]; in the assay on SW480 colon cancer cells; in assay [2]) was less than 5.00 each time.
Consider `Cn1cc(-c2ccc3[nH]nc(-c4nc5c(N6CCCCC6)cccc5[nH]4)c3n2)c(CO)n1` [Compound 1134, (1-Methyl-4-(3-(4-(piperidin-1-yl)-1H-benzo[d]imidazol-2-yl)-1H-pyrazolo [4,3-b]pyridin-5-yl)-1H-pyrazol-3-yl)methanol], for which the values for the pEC50 (in assay [1]; in the assay with SW480 colon cancer cells; in assay [2]) were 5.47, less than 5.00 and less than 5.00, respectively. Moreover, the inhibition at 10 µM in the assay with SW480 colon cancer cells is 18.2%; in assay [2], 0%.
As to `O=C(Cc1ccccc1)Nc1cncc(-c2ccc3[nH]nc(-c4nc5ccccc5[nH]4)c3n2)c1` [Compound 262, N-(5-(3-(1H-Benzo[d]imidazol-2-yl)-1H-pyrazolo[4,3-b]pyridin-5-yl)pyridin-3-yl)-2-phenylacetamide], the inhibition at 10 µM in assay [1] worked out at 11.2%; in the assay with SW480 colon cancer cells, 13.9%; in assay [2] it was 0%. Besides, the pEC50 (in assay [1]; with SW480 colon cancer cells; in assay [2]) was less than 5.00 throughout.
In the case of `COc1cccc(-c2cccc3[nH]c(-c4n[nH]c5ccc(-c6cncc(OC7CCNCC7)c6)nc45)nc23)c1` [Compound 1025, 3-(4-(3-Methoxyphenyl)-1H-benzo[d]imidazol-2-yl)-5-(5-(piperidin-4-yloxy)pyridin-3-yl)-1H-pyrazolo[4,3-b]pyridine], the figures for the pEC50 (in assay [1]; with SW480 colon cancer cells; in assay [2]) were 5.40, 5.24 and 5.68, respectively.
In the same order, the values of `CC(C)CC(=O)Nc1cncc(-c2ccc3[nH]nc(-c4nc5c(-c6ccc(Cl)s6)cccc5[nH]4)c3n2)c1` [Compound 1037, N-(5-(3-(4-(5-Chlorothiophen-2-yl)-1H-benzo[d]imidazol-2-yl)-1H-pyrazolo [4,3-b]pyridin-5-yl)pyridin-3-yl)-3-methylbutanamide] are 5.72, 5.01 and 5.86.
For `Cn1cc(-c2ccc3[nH]nc(-c4nc5c(-c6ccc7c(c6)OCO7)cccc5[nH]4)c3n2)c(CO)n1` [Compound 1152, (4-(3-(4-(Benzo[d][1,3]dioxol-5-yl)-1H-benzo[d]imidazol-2-yl)-1H-pyrazolo[4,3-b]pyridin-5-yl)-1-methyl-1H-pyrazol-3-yl)methanol], the pEC50 was 6.03 in assay [1], 6.21 in the assay on SW480 colon cancer cells and less than 5.00 in assay [2]. In addition, the inhibition at 10 µM in assay [2] is 0%.
For `O=C(Nc1cncc(-c2ccc3[nH]nc(-c4nc5c(-c6ccccc6F)cccc5[nH]4)c3n2)c1)C1CCCC1` [Compound 78, N-(5-(3-(4-(2-Fluorophenyl)-1H-benzo[d]imidazol-2-yl)-1H-pyrazolo[4,3-b]pyridin-5-yl)pyridin-3-yl)cyclopentanecarboxamide], the inhibition at 10 µM stood at 29% in assay [1] and 20% in the assay with SW480 colon cancer cells. For the same compound, the pEC50 in assay [1] is less than 5.00; with SW480 colon cancer cells it was less than 5.00; in assay [2], 5.60.
Take `CS(=O)(=O)NCc1cc(F)cc(-c2cccc3[nH]c(-c4n[nH]c5ccc(-c6cncc(NC(=O)c7ccccc7)c6)nc45)nc23)c1` [Compound 487, N-(5-(3-(4-(3-Fluoro-5-(methylsulfonamidomethyl)phenyl)-1H-benzo[d]imidazol-2-yl)-1H-pyrazolo[4,3-b]pyridin-5-yl)pyridin-3-yl)benzamide]: the inhibition at 10 µM in assay [1] turned out to be 0%; in the assay on SW480 colon cancer cells it was 9.7%; in assay [2], 0%. Further, the pEC50 (in assay [1]; in the assay with SW480 colon cancer cells; in assay [2]) was less than 5.00 in each case.
As for `C1=C(c2ccc3[nH]nc(-c4nc5c(-c6ccc7c(c6)OCO7)cccc5[nH]4)c3n2)CCNC1` [Compound 1109, 3-(4-(Benzo[d][1,3]dioxol-5-yl)-1H-benzo[d]imidazol-2-yl)-5-(1,2,3,6-tetrahydropyridin-4-yl)-1H-pyrazolo[4,3-b]pyridine], the values for the pEC50 (in assay [1]; with SW480 colon cancer cells; in assay [2]) were 5.96, 5.91 and 5.80, respectively.
`c1cncc(-c2ccc3[nH]nc(-c4nc5c(-c6cccnc6)cccc5[nH]4)c3n2)c1` [Compound 88, 5-(Pyridin-3-yl)-3-(4-(pyridin-3-yl)-1H-benzo[d]imidazol-2-yl)-1H-pyrazolo [4,3-b]pyridine]: the figures for the pEC50 (in assay [1]; in the assay on SW480 colon cancer cells; in assay [2]) were 5.58, 5.17 and less than 5.00, respectively. The inhibition at 10 µM in assay [2] worked out at 0%.
For `Cn1cc(-c2ccc3[nH]nc(-c4nc5c(-c6cc(F)cc(CNS(C)(=O)=O)c6)cccc5[nH]4)c3n2)cn1` [Compound 764, N-(3-Fluoro-5-(2-(5-(1-methyl-1H-pyrazol-4-yl)-1H-pyrazolo[4,3-b]pyridin-3-yl)-1H-benzo[d]imidazol-4-yl)benzyl)methanesulfonamide], the results for the pEC50 (in assay [1]; in the assay on SW480 colon cancer cells; in assay [2]) were 6.27, 5.85 and 5.70, respectively.
